Laboratory results reported in paper PMC6116705, “Design, synthesis, in vitro antiproliferative activity and apoptosis-inducing studies of 1-(3′,4′,5′-trimethoxyphenyl)-3-(2′-alkoxycarbonylindolyl)-2-propen-1-one derivatives obtained by a molecular hybridisation approach” (Journal of Enzyme Inhibition and Medicinal Chemistry, 2018).
Where two headings read alike, the source gives them in different places.

What was measured:
[1] = tested on: human promyelocytic leukemia (HL-60) cells; assay: Antiproliferative assay, cell counting (Coulter Counter), HL-60; assay type: cell-based; conditions: Homo sapiens; HL-60, 72–96 h; read-out: IC50, inhibition of proliferation
Experimental: (§1) Human cervix carcinoma (HeLa), human colon carcinoma (HT29), human breast carcinoma (MCF-7) and human lymphoma (HL-60) cells (3–5 × 10^4 cells) and a serial (five-fold) dilution of the test compounds were added to a 96-well microtiter plate. The cells were incubated for 72–96 h (depending on the tumor cell line) at 37 °C in a humidified 5% CO2 atmosphere. At the end of the incubation period, the cells were counted in a Coulter Counter (Coulter Electronics Ltd, Harpenden Herts, UK). […] The IC50 values represent the average (±standard deviation) of at least two to four independent experiments.

U-937 cells = assay: Cell cycle phase distribution and apoptosis, flow cytometry (propidium iodide) and fluorescence microscopy, U-937; assay type: cell-based, human
Experimental: Fluorescent microscopy and flow cytometric analysis of propidium iodide-stained cells were performed as described. Briefly, cells were harvested and fixed in 3% paraformaldehyde and incubated at room temperature for 10 min. The fixative was removed, and the cells were washed with PBS, resuspended in 30–50 μL of PBS containing 20 μg/mL bis-benzimide trihydrochloride (Hoechst 33258) and incubated at room temperature for 15 min. Stained nuclei were visualized using a Zeiss fluorescence microscope.
Flow cytometric analysis was carried out using a BD FACSVerse™ cytometer (BD Biosciences, San Jose, CA, USA).

[2] = tested on: human cervix carcinoma (HeLa) cells; assay: Antiproliferative assay, cell counting (Coulter Counter), HeLa; assay type: cell-based; conditions: 72–96 h, read-out: IC50, inhibition of proliferation
Experimental: as §1

bovine brain tubulin = assay: Inhibition of tubulin polymerisation (turbidimetric tubulin assembly); assay type: biochemical; conditions: for IC50: tubulin 10 µM, 20 min at 30 °C, read-out: Tubulin assembly IC50±SD
Experimental: To evaluate the effect of the compounds on tubulin assembly in vitro[40], varying concentrations of compounds were preincubated with 10 μM bovine brain tubulin in 0.8M monosodium glutamate (pH adjusted to 6.6 with HCl in a 2.0M stock solution) at 30 °C and then cooled to 0 °C. After addition of 0.4 mM GTP, the mixtures were transferred to 0 °C cuvettes in a recording spectrophotometer and warmed to 30 °C. Tubulin assembly was followed turbidimetrically at 350 nm. […] The capacity of the test compounds to inhibit colchicine binding to tubulin was measured as described. The reaction mixtures contained 1 μM tubulin, 5 μM [^3H]colchicine and 5 μM test compound.

[3] = tested on: U-937 cells overexpressing human Bcl-2 (U-937/Bcl-2); assay: MTT cytotoxicity assay, U-937/Bcl-2; assay type: cell-based; conditions: U-937/Bcl-2, MTT, read-out: IC50, inhibition of cell growth
Experimental: U-937 (human myeloid leukaemia) cells from DSMZ (German Collection of Microorganisms and Cell Cultures, Braunschweig, Germany) and U-937 cells overexpressing human Bcl-2 protein (designated U-937/Bcl-2, donated by Dr Jacqueline Bréard, INSERM U749, Faculté de Pharmacie Paris-Sud., Châtenay-Malabry, France) were cultured in RPMI-1640 medium containing 10% (v/v) heat-inactivated foetal bovine serum, 100 μg/mL streptomycin and 100 U/mL penicillin, incubated at 37 °C in a humidified atmosphere containing 5% CO2 as described. The functioning of U-937/Bcl-2 cells was tested using the cytotoxic agent 1-β-D-arabino-furanosylcytosine as previously described. Human peripheral blood mononuclear cells (PBMC) were isolated from heparin-anticoagulated blood of healthy volunteers by centrifugation with Ficoll-Paque Plus (GE Healthcare Bio-Sciences AB, Uppsala, Sweden). PBMC were also stimulated with phytohemagglutinin (2 μg/mL) for 48 h before the experimental treatment. The trypan blue dye exclusion method was used for counting the living/dead cells by a hematocytometer with 95% viability in all experiments. The cytotoxicity of compounds was evaluated by the colorimetric 3-(4,5-dimethyl-2-thiazolyl-)-2,5-diphenyl-2H-tetrazolium bromide (MTT) assay as previously described. Briefly, 5 × 10^3 exponentially growing cells were seeded in 96-well microculture plates with increasing concentrations of compounds for 72 h. After the addition of MTT (0.5 mg/mL), cells were incubated at 37 °C for 4 h. Sodium dodecyl sulphate (10% w/v) in 0.05 M HCl was added to the wells and then incubated at room temperature overnight in the dark. Absorbance was measured at 570 nm. […] Values are mean ± SE from at least three independent experiments, each performed in triplicate. Compounds were dissolved in DMSO and kept in the dark at 25 °C.

[4] = tested on: human breast adenocarcinoma (MCF-7) cells; assay: Antiproliferative assay, cell counting (Coulter Counter), MCF-7; assay type: cell-based; conditions: for fold more potent than CA-4: MCF-7 cells, ratio of IC50 values
Experimental: as §1

Row | SMILES | IC50 [1] [µM] | % G1 (U-937 cells; U-937, 24 h, 3 µM) [%] | % G2-M (U-937 cells; U-937, 24 h, 3 µM) [%] | % S (U-937 cells; U-937, 24 h, 3 µM) [%] | % Sub-G1 (U-937 cells; U-937, 24 h, 3 µM) [%] | % G1 (U-937 cells; U-937, 24 h, 10 µM) [%] | % G2-M (U-937 cells; U-937, 24 h, 10 µM) [%] | % S (U-937 cells; U-937, 24 h, 10 µM) [%] | % Sub-G1 (U-937 cells; U-937, 24 h, 10 µM) [%] | % G1 (U-937 cells; U-937, 48 h, 3 µM) [%] | % G2-M (U-937 cells; U-937, 48 h, 3 µM) [%] | % S (U-937 cells; U-937, 48 h, 3 µM) [%] | % Sub-G1 (U-937 cells; U-937, 48 h, 3 µM) [%] | % G1 (U-937 cells; U-937, 48 h, 10 µM) [%] | % G2-M (U-937 cells; U-937, 48 h, 10 µM) [%] | % S (U-937 cells; U-937, 48 h, 10 µM) [%] | % Sub-G1 (U-937 cells; U-937, 48 h, 10 µM) [%] | % G1 (U-937 cells; U-937, 72 h, 3 µM) [%] | % G2-M (U-937 cells; U-937, 72 h, 3 µM) [%] | % S (U-937 cells; U-937, 72 h, 3 µM) [%] | also measured
1 | CCOC(=O)c1[nH]c2cc(OC)ccc2c1/C=C/C(=O)c1cc(OC)c(OC)c(OC)c1 [Compound 9f, (E)-Ethyl 6-methoxy-3-(3-oxo-3-(3,4,5-trimethoxyphenyl)prop-1-en-1-yl)-1H-indole-2-carboxylate] | 5.2 ± 2.2 | 42.7 ± 0.5 | 25.2 ± 0.1 | 24.6 ± 0.8 | 5.9 ± 0.3 | 36.7 ± 1.8 | 23.8 ± 0.4 | 25.5 ± 0.5 | 11.9 ± 1.6 | 51.0 ± 0.5 | 19.2 ± 0.5 | 24.0 ± 0.3 | 5.1 ± 0.1 | 47.1 ± 1.1 | 18.2 ± 0.1 | 23.4 ± 0.3 | 10.1 ± 0.6 | 53.1 ± 2.0 | 16.5 ± 0.6 | 22.3 ± 1.4 | % Sub-G1 (U-937 cells; U-937, 72 h, 3 µM): 6.4 ± 0.6%; % G1 (U-937 cells; U-937, 72 h, 10 µM): 43.3 ± 1.7%; % G2-M (U-937 cells; U-937, 72 h, 10 µM): 15.0 ± 0.6%; % S (U-937 cells; U-937, 72 h, 10 µM): 21.2 ± 1.2%; % Sub-G1 (U-937 cells; U-937, 72 h, 10 µM): 19.0 ± 3.3 %; IC50 [2]: 0.84 ± 0.39 µM; IC50 ([2]; Homo sapiens): < 1 µM; IC50 (bovine brain tubulin): 17 ± 2 µM; IC50 ([3]; Homo sapiens, U-937, 72 h): 1 ± 0.8 µM; fold more potent than CA-4 [4]: 1.5–2 fold
2 | CCOC(=O)c1[nH]c2ccc(OC)cc2c1/C=C/C(=O)c1cc(OC)c(OC)c(OC)c1 [Compound 9d, (E)-Ethyl 5-methoxy-3-(3-oxo-3-(3,4,5-trimethoxyphenyl)prop-1-en-1-yl)-1H-indole-2-carboxylate] | 3.4 ± 1 | 52.3 ± 0.2 | 21.2 ± 0.4 | 21.8 ± 0.0 | 3.5 ± 0.3 | 44.9 ± 0.6 | 24.8 ± 0.3 | 22.9 ± 0.4 | 5.6 ± 0.5 | 52.9 ± 0.9 | 18.3 ± 0.3 | 25.8 ± 0.5 | 2.3 ± 0.1 | 55.3 ± 0.7 | 16.9 ± 0.5 | 23.1 ± 0.1 | 4.1 ± 0.4 | 53.6 ± 2.4 | 15.4 ± 1.0 | 21.3 ± 1.0 | % Sub-G1 (U-937 cells; U-937, 72 h, 3 µM): 7.9 ± 0.2%; % G1 (U-937 cells; U-937, 72 h, 10 µM): 55.1 ± 0.0%; % G2-M (U-937 cells; U-937, 72 h, 10 µM): 15.5 ± 0.8%; % S (U-937 cells; U-937, 72 h, 10 µM): 22.6 ± 0.7%; % Sub-G1 (U-937 cells; U-937, 72 h, 10 µM): 5.4 ± 0.2%; apoptosis induction (fluorescence microscopy and flow cytometry) (U-937 cells; U-937 cells): not an apoptotic inducer; IC50 (bovine brain tubulin): > 20 µM; IC50 ([3]; Homo sapiens, U-937, 72 h): 0.7 ± 0.2 µM
3 | COC(=O)c1[nH]c2cc(OC)ccc2c1/C=C/C(=O)c1cc(OC)c(OC)c(OC)c1 [Compound 9e, (E)-Methyl 6-methoxy-3-(3-oxo-3-(3,4,5-trimethoxyphenyl)prop-1-en-1-yl)-1H-indole-2-carboxylate] | 18 ± 14 | 43.2 ± 0.2 | 24.5 ± 0.1 | 24.4 ± 0.1 | 6.4 ± 0.4 | 33.0 ± 2.1 | 23.2 ± 0.3 | 27.1 ± 0.5 | 14.3 ± 1.6 | 53.6 ± 0.3 | 16.5 ± 0.1 | 24.6 ± 0.3 | 4.5 ± 0.2 | 39.7 ± 1.1 | 17.6 ± 0.0 | 23.3 ± 0.1 | 17.9 ± 1.2 | 52.0 ± 0.9 | 14.3 ± 0.2 | 21.2 ± 0.7 | % Sub-G1 (U-937 cells; U-937, 72 h, 3 µM): 10.8 ± 0.1%; % G1 (U-937 cells; U-937, 72 h, 10 µM): 44.5 ± 1.4 %; % G2-M (U-937 cells; U-937, 72 h, 10 µM): 14.1 ± 0.4%; % S (U-937 cells; U-937, 72 h, 10 µM): 21.4 ± 0.6%; % Sub-G1 (U-937 cells; U-937, 72 h, 10 µM): 18.4 ± 1.2 %; IC50 ([2]; Homo sapiens): 0.37 ± 0.18 µM; fold less potent than CA-4 as inhibitor of tubulin polymerisation (bovine brain tubulin; ratio of tubulin assembly IC50 values): 10 fold; IC50 (bovine brain tubulin): 6.2 ± 0.6 µM; IC50 ([3]; Homo sapiens, U-937, 72 h): ~1 µM; IC50 ([3]; 72 h): 1.1 ± 1 µM; IC50 ([4]; Homo sapiens, MCF7, MCF-7, 72–96 h, read-out: IC50, inhibition of proliferation): 0.17 ± 0.03 µM; fold more potent than CA-4 [4]: 1.5–2 fold
